As a reminder, the EC50 is the midpoint of the concentration-response curve. High values mean a less potent agent, low ones a more potent agent. The term IC50 denotes the point on the concentration scale where inhibition reaches its midpoint. Low readings indicate inhibition by little substance, high ones a need for much substance.

Values after ≈ are worked out from the molar mass of the structure shown. A value given as a limit tells only on which side of the number the result lay.

One assay relates to Human alphaherpesvirus 1. The assay can be described thus: Compound was evaluated for the antiviral activity against HSV-1. Format: functional, organism-based.
Assay [1] relates to Human immunodeficiency virus 1. The assay can be described thus: Compound was evaluated for the antiviral activity against HIV-1. It is filed as functional, organism-based.
A further assay relates to Human betaherpesvirus 5. The assay can be described thus: Compound was evaluated for the antiviral activity against HCMV. Format: functional, organism-based.
Another assay concerns Human alphaherpesvirus 2. The assay can be described thus: Compound was evaluated for the antiviral activity against HSV-2. Format: functional, organism-based.
Assay [2] can be described thus: Compound was evaluated for its cytotoxicity. Format: functional.

Turning to `C=C1[C@H](CO)OC[C@@H]1n1cnc2c(N)ncnc21`, the EC50 in the assay with Human alphaherpesvirus 1 is greater than 100 µg/mL; in assay [1], greater than 100 µg/mL; with Human betaherpesvirus 5, 33.3 µg/mL (≈ 135 µM); with Human alphaherpesvirus 2 it was greater than 100 µg/mL. The compound also had a concentration for half-maximal inhibition (IC50) in assay [2] greater than 100 µg/mL.
Regarding `C=C1[C@H](CO)OC[C@@H]1n1ccc(=O)[nH]c1=O`, the EC50 in the assay with Human alphaherpesvirus 1 worked out at 100 µg/mL (≈ 446 µM); in assay [1], 100 µg/mL (≈ 446 µM); in the assay with Human betaherpesvirus 5 it was 10.6 µg/mL (≈ 47.3 µM); in the assay on Human alphaherpesvirus 2, 100 µg/mL (≈ 446 µM). Besides, the half-maximal inhibitory concentration (IC50) in assay [2] stood at 100 µg/mL (≈ 446 µM).
`C=C1[C@H](CO)OC[C@@H]1n1cnc2c(O)nc(N)nc21`: the EC50 (in the assay on Human alphaherpesvirus 1; in assay [1]; with Human betaherpesvirus 5; in the assay with Human alphaherpesvirus 2) was greater than 100 µg/mL each time. In assay [2], this compound came in with a half-inhibitory concentration (IC50) greater than 100 µg/mL.
As for `C=C1[C@H](CO)OC[C@@H]1n1cnc2c(O)ncnc21`, the EC50 was 35 µg/mL (≈ 141 µM) in the assay with Human alphaherpesvirus 1, greater than 100 µg/mL in assay [1], greater than 100 µg/mL with Human betaherpesvirus 5 and greater than 100 µg/mL in the assay on Human alphaherpesvirus 2. For the same compound, the concentration for half-maximal inhibition (IC50) in assay [2] was greater than 100 µg/mL.
As to `C=C1[C@H](CO)OC[C@@H]1n1ccc(N)nc1=O`, the EC50 (with Human alphaherpesvirus 1; in assay [1]; with Human betaherpesvirus 5; in the assay with Human alphaherpesvirus 2) was greater than 100 µg/mL each time. The IC50 in assay [2] was greater than 100 µg/mL.
Turning to `Nc1nc2c(ncn2COCCO)c(=O)[nH]1` [ACYCLOVIR], the EC50 was 1.05 µg/mL (≈ 4.68 µM) in the assay on Human alphaherpesvirus 1 and 5.12 µg/mL (≈ 22.7 µM) in the assay on Human alphaherpesvirus 2. The compound further displayed an IC50 in assay [2] of 250 µg/mL (≈ 1110 µM).
On to `Nc1nc2c(ncn2COC(CO)CO)c(=O)[nH]1` [GANCICLOVIR], for which the midpoint of the response with Human betaherpesvirus 5, the EC50, lay at 0.74 µg/mL (≈ 2.9 µM). Also, the IC50 in assay [2] was greater than 10 µg/mL.
`Cc1cn([C@H]2C[C@H](N=[N+]=[N-])[C@@H](CO)O2)c(=O)[nH]c1=O` [ZIDOVUDINE] returned an EC50 in assay [1] of 0.00132 µg/mL (≈ 0.00494 µM). This compound also registered a concentration for half-maximal inhibition (IC50) in assay [2] of 1 µg/mL (≈ 3.74 µM).
